The text below walks through data of publication PMC7824103 (Viruses, 2020).

The nature of data set [1]: in vitro. The note with it: human.
Another data set concerns EBOV L (RdRp) activity. Nature of the data set: cells. Format: cell-based, Ebola virus. The note with it: for IC50: Zaire ebolavirus, HEK293T/17, 24 h, read-out: IC50 (minigenome luciferase).
In data set [2] the test system is EBOV. In words: microbe, parasite or virus in culture. Format: cell-based, Ebola virus. The note with it: Zaire ebolavirus; for IC50: read-out: Huh7 IC50; for IC90: read-out: Huh7 IC90.
In data set [3] the test system is recombinant cowpox virus expressing GFP (rCPXV-GFP). In words: microbe, parasite or virus in culture. In kind it is cell-based. The note with it: read-out: Max at conc (percent inhibition).
The subject of another data set is patients. The note with it: human, in vivo; cited from earlier work.
The subject of data set [4] is vesicular stomatitis Indiana virus. The note with it: cited from earlier work.
Data set [5] relates to human parainfluenza virus 3. The note with it: cited from earlier work.
The next data set concerns reovirus type 1. The note with it: cited from earlier work.
For data set [6], the system named is Marburg virus/H. sapiens-tc/AGO/2005/Angola-1379v (MARV). Nature of the data set: organism not typed. Format: cell-based.
The next data set deals with HEK 293T/T17 cells. The note with it: human.
The next data set relates to poliovirus 1. The note with it: cited from earlier work.
In data set [7] the test system is recombinant vaccinia virus expressing GFP (rVACV-GFP). Nature of the data set: organism not typed. In kind it is cell-based.
Data set [8] is described as follows: in vitro.
Data set [9] relates to EBOV. Nature of the data set: microbe, parasite or virus in culture. Format: cell-based, Ebola virus. The note with it: Zaire ebolavirus.
The subject of data set [10] is Lassa virus strain Josiah (LASV). Nature of the data set: microbe, parasite or virus in culture. Format: cell-based. The note with it: read-out: Max at conc (percent inhibition).
In another data set the test system is Sindbis virus. The note with it: cited from earlier work.
The next data set concerns African green monkeys. The note with it: monkey, in vivo; cited from earlier work.
The conditions of data set [11]: mouse, in vivo; cited from earlier work.
The test system of the next data set is coxsackie virus B4. The note with it: cited from earlier work.
The next data set concerns herpes simplex virus 1. The note with it: cited from earlier work.
Data set [12] relates to HIV-1 particles pseudotyped with VSIV G. In kind it is cell-based, human immunodeficiency virus 1.
For data set [13], the system named is Ebola virus/H.sapiens-tc/GIN/2014/Makona-C05 (EBOV). Nature of the data set: organism not typed. Format: cell-based.
The subject of a further data set is vaccinia virus. The note with it: cited from earlier work.
In the next data set the test system is herpes simplex virus 2. The note with it: cited from earlier work.
Where [14] appears, read: read-out: Max at conc (percent inhibition).
Where [15] appears, read: Orthopoxvirus vaccinia, read-out: Max at conc (percent inhibition).

Where two headings read alike, the source gives them in different places.

As to `CN(Cc1cnc2nc(N)nc(N)c2n1)c1ccc(C(=O)N[C@@H](CCC(=O)O)C(=O)O)cc1` [NSC 740], in “in vitro [1]”, the CC50 worked out at 0.13 µM.

Regarding `CCc1nc(N)nc(N)c1-c1ccc(Cl)cc1` [NSC 3061], the CC50 in the data set “in vitro [1]” turned out to be 22 µM.

The compound `COc1cc(Cc2cnc(N)nc2N)cc(OC)c1OC` [NSC 106568] came in with a CC50 in “in vitro [1]” above 60 µM.

`COc1cc(NS(C)(=O)=O)ccc1Nc1c2ccccc2nc2ccccc12` [NSC 249992] came in with a CC50 in the data set “in vitro [1]” of 22 µM.

Compound `C#CCC(Cc1cnc2nc(N)nc(N)c2n1)c1ccc(C(=O)N[C@@H](CCC(=O)O)C(=O)O)cc1` (stereo partly drawn) [NSC 754230] registered a CC50 in “in vitro [1]” of 0.004 µM.

Turning to `CCC(CC)COC(=O)[C@H](C)N[P@](=O)(OC[C@H]1O[C@@](C#N)(c2ccc3c(N)ncnn23)[C@H](O)[C@@H]1O)Oc1ccccc1` [Remdesivir, remdesivir, reference compound], in the data set on EBOV L (RdRp) activity, the “IC50 of constant ratio S:R, relative to remdesivir concentration” value was 1,444 nM. The IC50 was found to be 1.44 µM in the data set on EBOV L (RdRp) activity; 0.0877 µM in the data set with EBOV [2] (Huh-7, 1 h); 0.0746 µM in the data set with EBOV [2] (Huh-7, 2 h); 0.105 µM in the data set on EBOV [2] (Huh-7, 4 h); 0.116 µM in the data set with EBOV [2] (Huh-7, 8 h); 0.117 µM with EBOV [2] (Huh-7, 24 h). Also, the IC90 in the data set on EBOV [2] (Huh-7, 1 h) worked out at 0.18 µM; in the data set with EBOV [2] (Huh-7, 2 h), 0.154 µM; with EBOV [2] (Huh-7, 4 h), 0.188 µM; in the data set on EBOV [2] (Huh-7, 8 h), 0.224 µM; in the data set with EBOV [2] (Huh-7, 24 h), 0.231 µM.

Regarding `NC(=O)c1cn([C@@H]2O[C@H](CO)[C@@H](O)[C@H]2O)c2ncnc(N)c12` [Sangivamycin, 4-amino-7-(β-D-ribofuranosyl)pyrrolo[2,3-d]pyrimidine-5-carboxamide], the inhibition at 0.6 µM in data set [3] is 97%; in data set [6] (setting [14]), 100%; in data set [10], 99.7%; in data set [13] (Zaire ebolavirus, read-out: Max at conc (percent inhibition)) it was 100%. Besides, the “activity against cancer in clinical trials” value in the data set with patients is “inactive”. For the same compound, the tolerability in patients entry in the data set on patients is “well tolerated”. For the same compound, the concentration for half-maximal inhibition (IC50) was 0.065 µM in [4]; 0.065 µM in data set [5]; 0.323 µM with reovirus type 1; 0.1 to 0.3 µM in data set [6] (read-out: IC50 values (range across cell types)); 0.0464 µM in the data set on EBOV L (RdRp) activity; 0.226 µM with poliovirus 1. The concentration for half-maximal inhibition (IC50) in data set [7] was above 0.004 µM; in data set [7] (Orthopoxvirus vaccinia), 0.02 ± 0.004 µM; with EBOV [9], 0.06 ± 0.003 µM; in the data set with Sindbis virus it was 0.646 µM; in the data set on coxsackie virus B4, 0.129 µM; in the data set with herpes simplex virus 1, 0.226 µM. Also, the IC50 in data set [13] was 0.11 ± 0.008 µM; in [13] (Zaire ebolavirus), 0.06 ± 0.003 µM; in data set [13] (Zaire ebolavirus, read-out: IC50 values (range across cell types)), 0.04 to 0.1 µM; in the data set with vaccinia virus, 0.065 µM; in the data set on herpes simplex virus 2, 0.226 µM; with EBOV [2] (Huh-7, 1 h), 0.103 µM. For the same compound, the IC50 is 0.106 µM with EBOV [2] (Huh-7, 2 h); 0.057 µM in the data set with EBOV [2] (Huh-7, 4 h); 0.0721 µM with EBOV [2] (Huh-7, 8 h); 0.0641 µM in the data set on EBOV [2] (Huh-7, 24 h). In the data set on EBOV L (RdRp) activity, the “IC50 of constant ratio S:R, relative to sangivamycin concentration” value is 0.0464 µM. Besides, the “reduction of luciferase activity vs untreated control” value in the data set on EBOV L (RdRp) activity is on record as “greater than 80%”. Moreover, the cytotoxicity result in the data set on HEK 293T/T17 cells is “approximately 30%”. In addition, the inhibition at 0.075 µM in [7] (setting [15]) came out at 98%. Moreover, the inhibition at 0.3 µM in [7] (setting [15]) is 95.4%; in data set [10], 104%. Besides, the CC50 in the data set “in vitro [8]” was above 0.6 µM. For the same compound, the inhibition at 0.15 µM with EBOV [9] (setting [14]) is 100%. Besides, in the data set with African green monkeys, the tolerability result is “tolerated”. The tissue retention entry in data set [11] is given as “retained in tissues for days”. For the same compound, the HIV-1 pseudotype transduction result in [12] is “did not affect”. Further, the concentration for an effect of 90% (IC90) in the data set with EBOV [2] (Huh-7, 1 h) was determined as 0.147 µM; in the data set with EBOV [2] (Huh-7, 2 h), 0.143 µM; in the data set on EBOV [2] (Huh-7, 4 h), 0.132 µM; in the data set with EBOV [2] (Huh-7, 8 h), 0.163 µM; in the data set on EBOV [2] (Huh-7, 24 h), 0.236 µM.

In turn, NSC 133071 yielded a CC50 with HEK 293T cells above 60 µM.

The compound sangivamycin HCl [NSC 143648] displayed a CC50 in the data set with HEK 293T cells above 60 µM.

One may read the IC50 as the concentration that gives 50% inhibition. One may read the IC90 as the concentration needed for an effect of 90%. By inhibition is commonly meant the change of the read-out against control, counted positive when it falls.
